According to ChEMBL document CHEMBL4507294, “Data for DCP probe MSD-CYP11B2” (2021):

Legend:
[1] = system: Epidermal growth factor receptor (Homo sapiens), P00533 [L858R,T790M]; conditions: Compound concentration 1000.0 nM
[2] = biological target: TGF-beta receptor type-2 (Homo sapiens) (UniProt P37173); conditions: Compound concentration 1000.0 nM
[3] = biological target: Fibroblast growth factor receptor 1 (Homo sapiens) (UniProt P11362); conditions: Compound concentration 1000.0 nM
[4] = system: Receptor-type tyrosine-protein kinase FLT3 (Homo sapiens), P36888 [D835Y]; conditions: Compound concentration 1000.0 nM
[5] = biological target: Mitogen-activated protein kinase 9 (Homo sapiens) (UniProt P45984); conditions: Compound concentration 1000.0 nM
Sequence of Mitogen-activated protein kinase 9 (Homo sapiens) (P45984 whole entry, looked up, canonical isoform): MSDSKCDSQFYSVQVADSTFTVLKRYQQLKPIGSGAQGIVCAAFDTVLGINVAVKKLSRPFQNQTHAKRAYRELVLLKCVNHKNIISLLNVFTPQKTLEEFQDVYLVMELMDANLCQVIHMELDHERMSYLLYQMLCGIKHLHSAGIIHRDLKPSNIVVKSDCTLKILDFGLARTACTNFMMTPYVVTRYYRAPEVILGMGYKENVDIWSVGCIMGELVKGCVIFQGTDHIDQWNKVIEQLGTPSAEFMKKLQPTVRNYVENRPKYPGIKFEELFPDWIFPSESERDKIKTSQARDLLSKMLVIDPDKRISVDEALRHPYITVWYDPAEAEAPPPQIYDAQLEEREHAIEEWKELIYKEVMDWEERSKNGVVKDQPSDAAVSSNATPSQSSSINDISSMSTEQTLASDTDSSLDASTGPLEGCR

[6] = system: Phosphatidylinositol 4,5-bisphosphate 3-kinase catalytic subunit alpha isoform (Homo sapiens), P42336 [E545K]; conditions: Compound concentration 1000.0 nM
[7] = system: Tyrosine-protein kinase ABL1 (Homo sapiens), P00519 [M351T]; conditions: Compound concentration 1000.0 nM
[8] = biological target: SRSF protein kinase 3 (Homo sapiens) (UniProt Q9UPE1); conditions: Compound concentration 1000.0 nM
Sequence of SRSF protein kinase 3 (Homo sapiens) (Q9UPE1 whole entry): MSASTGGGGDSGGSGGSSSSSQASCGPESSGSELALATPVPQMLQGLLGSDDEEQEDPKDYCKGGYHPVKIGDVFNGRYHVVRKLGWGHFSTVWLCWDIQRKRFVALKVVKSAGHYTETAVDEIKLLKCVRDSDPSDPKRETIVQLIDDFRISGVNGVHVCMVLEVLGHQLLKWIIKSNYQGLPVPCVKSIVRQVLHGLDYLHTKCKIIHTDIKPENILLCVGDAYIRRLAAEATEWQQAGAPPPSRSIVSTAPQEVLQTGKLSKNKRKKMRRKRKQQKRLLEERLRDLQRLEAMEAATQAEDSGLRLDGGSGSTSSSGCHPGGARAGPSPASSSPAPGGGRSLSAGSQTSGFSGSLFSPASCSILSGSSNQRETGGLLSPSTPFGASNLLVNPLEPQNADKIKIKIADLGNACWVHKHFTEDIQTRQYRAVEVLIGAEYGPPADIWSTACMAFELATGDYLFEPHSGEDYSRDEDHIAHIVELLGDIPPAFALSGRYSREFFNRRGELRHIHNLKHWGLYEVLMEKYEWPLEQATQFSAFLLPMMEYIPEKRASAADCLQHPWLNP

[9] = system: Mast/stem cell growth factor receptor Kit (Homo sapiens), P10721 [A829P]; conditions: Compound concentration 1000.0 nM
[10] = biological target: Ephrin type-B receptor 6 (Homo sapiens) (UniProt O15197); conditions: Compound concentration 1000.0 nM
[11] = biological target: cGMP-dependent protein kinase 1 (Homo sapiens) (UniProt Q13976); conditions: Compound concentration 1000.0 nM
[12] = biological target: Serine/threonine-protein kinase Nek3 (Homo sapiens) (UniProt P51956); conditions: Compound concentration 1000.0 nM
[13] = biological target: Casein kinase II subunit alpha' (Homo sapiens) (UniProt P19784); conditions: Compound concentration 1000.0 nM
[14] = biological target: Protein kinase C epsilon type (Homo sapiens) (UniProt Q02156); conditions: Compound concentration 1000.0 nM
[15] = biological target: Histamine H2 receptor (Homo sapiens) (UniProt P25021); conditions: Compound concentration 10.0 uM
Sequence of Histamine H2 receptor (Homo sapiens) (P25021 whole entry): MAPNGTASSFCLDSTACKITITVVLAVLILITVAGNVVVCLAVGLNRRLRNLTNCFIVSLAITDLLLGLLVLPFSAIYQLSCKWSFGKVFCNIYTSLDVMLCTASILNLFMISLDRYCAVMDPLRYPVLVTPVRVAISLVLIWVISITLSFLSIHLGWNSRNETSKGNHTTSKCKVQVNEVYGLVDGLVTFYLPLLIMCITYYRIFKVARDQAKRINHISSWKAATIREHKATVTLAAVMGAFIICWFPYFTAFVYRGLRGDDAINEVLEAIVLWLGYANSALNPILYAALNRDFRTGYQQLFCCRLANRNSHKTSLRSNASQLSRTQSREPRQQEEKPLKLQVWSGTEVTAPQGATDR

[16] = biological target: Tyrosine-protein kinase HCK (Homo sapiens) (UniProt P08631); conditions: Compound concentration 1000.0 nM
Sequence of Tyrosine-protein kinase HCK (Homo sapiens) (P08631 2-526 limits assumed): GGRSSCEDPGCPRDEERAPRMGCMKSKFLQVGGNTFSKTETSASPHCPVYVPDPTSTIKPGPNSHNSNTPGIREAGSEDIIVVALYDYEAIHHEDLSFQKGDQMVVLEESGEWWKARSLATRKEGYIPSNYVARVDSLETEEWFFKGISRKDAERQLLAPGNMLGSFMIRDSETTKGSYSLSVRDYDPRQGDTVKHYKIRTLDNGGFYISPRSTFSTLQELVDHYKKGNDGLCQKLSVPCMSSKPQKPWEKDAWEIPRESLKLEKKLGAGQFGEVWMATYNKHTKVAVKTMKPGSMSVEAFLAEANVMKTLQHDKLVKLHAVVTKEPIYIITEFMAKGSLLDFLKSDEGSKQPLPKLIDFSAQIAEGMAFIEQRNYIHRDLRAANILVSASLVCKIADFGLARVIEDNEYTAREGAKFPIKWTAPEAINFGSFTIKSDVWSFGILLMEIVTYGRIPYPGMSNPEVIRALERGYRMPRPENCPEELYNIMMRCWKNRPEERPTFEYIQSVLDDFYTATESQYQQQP

[17] = biological target: Serine/threonine-protein kinase Nek11 (Homo sapiens) (UniProt Q8NG66); conditions: Compound concentration 1000.0 nM
[18] = system: Epidermal growth factor receptor (Homo sapiens), P00533 [G719C]; conditions: Compound concentration 1000.0 nM
[19] = system: Phosphatidylinositol 4,5-bisphosphate 3-kinase catalytic subunit alpha isoform (Homo sapiens), P42336 [M1043I]; conditions: Compound concentration 1000.0 nM
[20] = biological target: Calcium/calmodulin-dependent protein kinase type II subunit gamma (Homo sapiens) (UniProt Q13555); conditions: Compound concentration 1000.0 nM
Sequence of Calcium/calmodulin-dependent protein kinase type II subunit gamma (Homo sapiens) (Q13555 whole entry): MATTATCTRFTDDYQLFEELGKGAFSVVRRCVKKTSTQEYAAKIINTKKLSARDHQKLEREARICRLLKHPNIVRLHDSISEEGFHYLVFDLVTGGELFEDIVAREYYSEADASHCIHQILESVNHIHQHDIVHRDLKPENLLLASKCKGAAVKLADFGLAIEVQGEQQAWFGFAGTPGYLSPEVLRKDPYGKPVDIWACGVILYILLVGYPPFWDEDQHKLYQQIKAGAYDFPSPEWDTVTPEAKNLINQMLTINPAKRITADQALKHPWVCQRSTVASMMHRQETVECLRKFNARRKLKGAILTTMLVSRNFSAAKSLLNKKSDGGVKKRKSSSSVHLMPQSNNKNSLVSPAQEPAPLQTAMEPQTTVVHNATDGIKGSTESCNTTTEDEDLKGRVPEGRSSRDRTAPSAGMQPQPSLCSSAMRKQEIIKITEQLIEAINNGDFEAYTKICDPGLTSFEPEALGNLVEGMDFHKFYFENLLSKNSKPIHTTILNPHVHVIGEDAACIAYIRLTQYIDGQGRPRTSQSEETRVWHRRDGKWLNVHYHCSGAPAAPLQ

[21] = biological target: Cyclin-dependent kinase-like 3 (Homo sapiens) (UniProt Q8IVW4); conditions: Compound concentration 1000.0 nM
[22] = biological target: Cyclin-dependent kinase 17 (Homo sapiens) (UniProt Q00537); conditions: Compound concentration 1000.0 nM
[23] = biological target: Calcium-dependent protein kinase 1 (Plasmodium falciparum) (UniProt P62344); conditions: Compound concentration 1000.0 nM
[24] = biological target: D(3) dopamine receptor (Homo sapiens) (UniProt P35462); conditions: Compound concentration 10.0 uM
Sequence of D(3) dopamine receptor (Homo sapiens) (P35462 whole entry): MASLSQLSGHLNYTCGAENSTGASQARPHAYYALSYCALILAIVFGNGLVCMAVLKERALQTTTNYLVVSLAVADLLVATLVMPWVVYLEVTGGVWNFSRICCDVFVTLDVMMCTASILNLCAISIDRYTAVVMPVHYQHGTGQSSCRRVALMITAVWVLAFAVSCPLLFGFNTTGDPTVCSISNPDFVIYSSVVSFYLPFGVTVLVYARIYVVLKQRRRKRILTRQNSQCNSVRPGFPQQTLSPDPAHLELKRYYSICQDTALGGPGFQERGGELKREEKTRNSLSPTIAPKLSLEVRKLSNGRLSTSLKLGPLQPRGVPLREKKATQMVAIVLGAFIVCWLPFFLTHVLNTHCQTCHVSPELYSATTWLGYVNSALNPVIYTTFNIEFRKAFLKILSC

[25] = biological target: Cyclin-dependent kinase 5 (Homo sapiens) (UniProt Q00535); conditions: Compound concentration 1000.0 nM
[26] = system: Tyrosine-protein kinase ABL1 (Homo sapiens), P00519 [F317I]; conditions: Compound concentration 1000.0 nM
[27] = system: Tyrosine-protein kinase ABL1 (Homo sapiens), P00519 [Q252H]; conditions: Compound concentration 1000.0 nM
[28] = biological target: Receptor-type tyrosine-protein kinase FLT3 (Homo sapiens) (UniProt P36888); conditions: Compound concentration 1000.0 nM
[29] = system: Proto-oncogene tyrosine-protein kinase receptor Ret (Homo sapiens), P07949 [M918T]; conditions: Compound concentration 1000.0 nM
[30] = biological target: Platelet-derived growth factor receptor beta (Homo sapiens) (UniProt P09619); conditions: Compound concentration 1000.0 nM
[31] = biological target: Calcium/calmodulin-dependent protein kinase type 1 (Homo sapiens) (UniProt Q14012); conditions: Compound concentration 1000.0 nM
[32] = biological target: cAMP-dependent protein kinase catalytic subunit beta (Homo sapiens) (UniProt P22694); conditions: Compound concentration 1000.0 nM
[33] = biological target: Ribosomal protein S6 kinase alpha-1 (Homo sapiens) (UniProt Q15418); conditions: Compound concentration 1000.0 nM
[34] = biological target: Glycogen synthase kinase-3 alpha (Homo sapiens) (UniProt P49840); conditions: Compound concentration 1000.0 nM
[35] = biological target: Serine/threonine-protein kinase PLK3 (Homo sapiens) (UniProt Q9H4B4); conditions: Compound concentration 1000.0 nM
[36] = biological target: Ephrin type-A receptor 4 (Homo sapiens) (UniProt P54764); conditions: Compound concentration 1000.0 nM
[37] = biological target: Mitogen-activated protein kinase kinase kinase 12 (Homo sapiens) (UniProt Q12852); conditions: Compound concentration 1000.0 nM
[38] = biological target: Insulin receptor-related protein (Homo sapiens) (UniProt P14616); conditions: Compound concentration 1000.0 nM
Sequence of Insulin receptor-related protein (Homo sapiens) (P14616 27-742 limits assumed): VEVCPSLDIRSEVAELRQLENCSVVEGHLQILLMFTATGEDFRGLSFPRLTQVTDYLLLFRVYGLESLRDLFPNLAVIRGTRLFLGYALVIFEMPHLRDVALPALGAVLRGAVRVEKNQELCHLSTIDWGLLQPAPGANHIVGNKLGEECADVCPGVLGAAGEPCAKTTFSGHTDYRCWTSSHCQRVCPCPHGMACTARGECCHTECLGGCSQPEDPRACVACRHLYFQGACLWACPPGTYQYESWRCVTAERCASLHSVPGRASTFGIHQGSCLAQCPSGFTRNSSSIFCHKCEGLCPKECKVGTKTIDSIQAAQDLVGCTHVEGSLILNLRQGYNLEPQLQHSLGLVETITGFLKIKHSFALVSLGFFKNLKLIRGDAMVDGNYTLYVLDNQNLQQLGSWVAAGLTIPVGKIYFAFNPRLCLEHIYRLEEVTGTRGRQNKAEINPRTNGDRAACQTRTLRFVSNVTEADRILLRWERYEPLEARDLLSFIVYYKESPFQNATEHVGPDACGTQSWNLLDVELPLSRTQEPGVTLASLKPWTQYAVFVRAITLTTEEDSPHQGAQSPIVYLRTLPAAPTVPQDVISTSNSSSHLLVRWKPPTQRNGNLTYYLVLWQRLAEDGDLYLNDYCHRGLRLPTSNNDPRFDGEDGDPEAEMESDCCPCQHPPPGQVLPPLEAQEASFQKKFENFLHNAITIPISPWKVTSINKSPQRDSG
Sequence of Insulin receptor-related protein (Homo sapiens) (P14616 747-1297 limits assumed): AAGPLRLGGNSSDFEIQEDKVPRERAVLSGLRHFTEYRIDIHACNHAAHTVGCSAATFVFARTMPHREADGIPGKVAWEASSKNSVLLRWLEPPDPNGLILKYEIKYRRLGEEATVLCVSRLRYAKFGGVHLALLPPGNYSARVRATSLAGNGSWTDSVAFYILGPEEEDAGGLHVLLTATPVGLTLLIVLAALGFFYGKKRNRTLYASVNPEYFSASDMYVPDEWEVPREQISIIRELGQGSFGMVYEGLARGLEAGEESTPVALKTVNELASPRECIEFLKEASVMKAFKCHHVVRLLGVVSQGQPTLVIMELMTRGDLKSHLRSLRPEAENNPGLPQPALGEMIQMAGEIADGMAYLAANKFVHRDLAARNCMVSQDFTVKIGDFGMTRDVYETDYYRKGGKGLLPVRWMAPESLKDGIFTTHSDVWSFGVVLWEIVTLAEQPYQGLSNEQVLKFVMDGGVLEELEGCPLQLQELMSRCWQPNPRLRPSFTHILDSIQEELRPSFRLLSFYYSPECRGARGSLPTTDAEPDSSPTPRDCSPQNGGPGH

[39] = biological target: Casein kinase I isoform epsilon (Homo sapiens) (UniProt P49674); conditions: Compound concentration 1000.0 nM
[40] = biological target: Dual serine/threonine and tyrosine protein kinase (Homo sapiens) (UniProt Q6XUX3); conditions: Compound concentration 1000.0 nM
[41] = biological target: Hormonally up-regulated neu tumor-associated kinase (Homo sapiens) (UniProt P57058); conditions: Compound concentration 1000.0 nM
[42] = biological target: Casein kinase I isoform gamma-1 (Homo sapiens) (UniProt Q9HCP0); conditions: Compound concentration 1000.0 nM
[43] = biological target: Focal adhesion kinase 1 (Homo sapiens) (UniProt Q05397); conditions: Compound concentration 1000.0 nM
[44] = biological target: Dual specificity mitogen-activated protein kinase kinase 1 (Homo sapiens) (UniProt Q02750); conditions: Compound concentration 1000.0 nM
[45] = biological target: Inhibitor of nuclear factor kappa-B kinase subunit alpha (Homo sapiens) (UniProt O15111); conditions: Compound concentration 1000.0 nM
Sequence of Inhibitor of nuclear factor kappa-B kinase subunit alpha (Homo sapiens) (O15111 whole entry): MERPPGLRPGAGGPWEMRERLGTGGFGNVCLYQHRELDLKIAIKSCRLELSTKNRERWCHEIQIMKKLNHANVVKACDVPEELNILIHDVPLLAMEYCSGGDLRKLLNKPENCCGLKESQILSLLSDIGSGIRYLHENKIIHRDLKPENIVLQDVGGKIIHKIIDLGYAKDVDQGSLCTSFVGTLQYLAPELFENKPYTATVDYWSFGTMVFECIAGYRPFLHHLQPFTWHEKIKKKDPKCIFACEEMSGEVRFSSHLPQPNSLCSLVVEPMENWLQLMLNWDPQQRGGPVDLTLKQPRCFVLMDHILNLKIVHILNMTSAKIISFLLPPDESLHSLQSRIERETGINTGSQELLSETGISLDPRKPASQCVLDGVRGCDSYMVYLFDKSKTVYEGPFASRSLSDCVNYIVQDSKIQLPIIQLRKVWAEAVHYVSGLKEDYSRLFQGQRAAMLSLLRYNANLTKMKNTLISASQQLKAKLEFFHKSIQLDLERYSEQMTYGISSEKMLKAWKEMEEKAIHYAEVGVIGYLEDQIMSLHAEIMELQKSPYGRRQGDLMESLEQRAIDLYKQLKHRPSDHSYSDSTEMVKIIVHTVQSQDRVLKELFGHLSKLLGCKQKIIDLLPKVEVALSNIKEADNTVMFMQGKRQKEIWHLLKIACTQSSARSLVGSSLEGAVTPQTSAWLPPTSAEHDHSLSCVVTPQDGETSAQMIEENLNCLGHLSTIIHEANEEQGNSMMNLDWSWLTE

FC(F)(F)c1ccc2c(c1)nc(-c1cccnc1)n2C1CC1 [MSD-CYP11B2-Negative-control]
inactive: residual activity [1] 100% | residual activity [2] 100% | residual activity [3] 100% | residual activity [4] 100% | residual activity [5] 100% | residual activity [6] 100% | residual activity [7] 100% | residual activity [8] 100% | residual activity [9] 100% | residual activity [10] 100% | residual activity [11] 87% | residual activity [12] 88% | residual activity [13] 100% | residual activity [14] 97% | inhibition [15] 6.72% | residual activity [16] 100% | residual activity [17] 100% | residual activity [18] 92% | residual activity [19] 100% | residual activity [20] 100% | residual activity [21] 96% | residual activity [22] 100% | residual activity [23] 100% | inhibition [24] -1.96% | residual activity [25] 100% | residual activity [26] 100% | residual activity [27] 100% | residual activity [28] 100% | residual activity [29] 91% | residual activity [30] 100% | residual activity [31] 100% | residual activity [32] 100% | residual activity [33] 100% | residual activity [34] 100% | residual activity [35] 100% | residual activity [36] 100% | residual activity [37] 100% | residual activity [38] 100% | residual activity [39] 100% | residual activity [40] 100% | residual activity [41] 100% | residual activity [42] 100% | residual activity [43] 100% | residual activity [44] 94% | residual activity [45] 100%

CC(C)(O)c1cncc(-c2nc3ccc(F)cc3n2C2CC2)c1 [MSD-CYP11B2]
inactive: residual activity [1] 92% | residual activity [2] 100% | residual activity [3] 100% | residual activity [4] 100% | residual activity [5] 100% | residual activity [6] 95% | residual activity [7] 100% | residual activity [8] 100% | residual activity [9] 100% | residual activity [10] 100% | residual activity [11] 78% | residual activity [12] 100% | residual activity [13] 100% | residual activity [14] 100% | inhibition [15] 1.75% | residual activity [16] 100% | residual activity [17] 100% | residual activity [18] 100% | residual activity [19] 100% | residual activity [20] 100% | residual activity [21] 84% | residual activity [22] 100% | residual activity [23] 100% | inhibition [24] -6.18% | residual activity [25] 100% | residual activity [26] 100% | residual activity [27] 100% | residual activity [28] 100% | residual activity [29] 100% | residual activity [30] 100% | residual activity [31] 100% | residual activity [32] 77% | residual activity [33] 100% | residual activity [34] 100% | residual activity [35] 100% | residual activity [36] 100% | residual activity [37] 100% | residual activity [38] 100% | residual activity [39] 100% | residual activity [40] 100% | residual activity [41] 100% | residual activity [42] 100% | residual activity [43] 100% | residual activity [44] 100% | residual activity [45] 100%
